Tested on: guinea-pig papillary muscles
Test: Inhibition of ouabain-induced arrhythmias (aftercontractions) in guinea-pig papillary muscles
Settings: 10 μM concentration; guinea-pig papillary muscle paced at 1 Hz, 37° C.
Procedure: The effects of the compounds of the invention were tested on ouabain-induced arrhythmias in guinea-pig papillary muscles.
Guinea-pig papillary muscles were mounted into horizontal muscle cuvette. A hook connected to force transducer was attached to another end of the muscle. Muscle preparations were electrically paced at 1 Hz with field stimulation via platinum electrodes. Modified Tyrode solution was used for superfusion of muscle preparations. The composition of the Tyrode solution was the following (mM): NaCl 135, MgCl2×6H2O 1, KCl 5, CaCl2×2H2O 2, NaHCO3 15, Na2HPO4×2H2O 1, and glucose 10. The Tyrode solution was gassed with carbogen (95% O2, 5% CO2) to set pH at 7.4. Experiments were carried out at 37° C. Acquisition and analysis of twitch tensions with Action Potential and Force Measurement System (ACFO v1.0, Fision Ltd, Finland).
Ouabain by blocking of sodium-potassium ATPase increases intracellular sodium which is changed for calcium via NCX. Increased intracellular calcium is leading to overload of sarcoplasmic reticulum (SR) and spontaneous calcium release from SR inducing delayed […] (DADs). Equivalence for DADs in force signal is aftercontractions (ACs) which are seen as spontaneous twitches after the pacing controlled twitch.
The antiarrhythmic effects of the title compounds of Examples 13, 33, 14a and 14b were examined.

NCC(=O)Nc1ccc(Oc2ccc3c(c2)CCC(c2ccccc2)O3)nc1 (stereo not shown) [Example 33, 2-Amino-N-[6-(2-phenylchroman-6-yloxy)pyridin-3-yl]acetamide]
inhibition of the emergency of ouabain-induced second aftercontraction: inhibit completely

From patent US7482340B2, “Pyridine derivatives useful for inhibiting sodium/calcium exchange system” (Orion Corporation, priority 2003, dated 2009)
